# Measured values published in PubChem BioAssay AID328 (DTP/NCI, 2004).
# “And” between values parts separate entries of the source, which are not always exact repeats. Identical values can stand only once. Inconclusive results and toxic doses are left out.
# Test system: BDF1 mice, P388 leukemia ip, median survival T/C
# Experiment: NCI In Vivo Anticancer Drug Screen. Data for tumor model P388 Leukemia (intraperitoneal) in B6D2F1 (BDF1) mice
# Settings: endpoint: median survival time, higher = longer survival
# Outline: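 Mice carrying the transplantable tumour receive compound or vehicle. Survival is followed in each arm, and the treated measure is divided by the vehicle measure.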
structure (smiles),measurement,setting,value
COc1c2c(c3c(c1OC)c(=O)c1ccccc1n3C)OCO2,T/C,"dose: 45.0 mg/kg/injection, schedule: Q01DX010 (ip), vehicle: carboxymethylcellulose (CMC)",90 % of control
same,T/C,"dose: 90.0 mg/kg/injection, schedule: Q01DX010 (ip), vehicle: carboxymethylcellulose (CMC)",104 % of control
same,T/C,"dose: 180.0 mg/kg/injection, schedule: Q01DX010 (ip), vehicle: carboxymethylcellulose (CMC)",95 % of control
COC(=O)/C=C1/C(=O)N(C)c2ccccc21,T/C,"dose: 50.0 mg/kg/injection, schedule: Q01DX009 (ip), vehicle: saline with Tween-80",122 % of control
same,T/C,"dose: 100.0 mg/kg/injection, schedule: Q01DX009 (ip), vehicle: saline with Tween-80",98 % of control
same,T/C,"dose: 200.0 mg/kg/injection, schedule: Q01DX009 (ip), vehicle: saline with Tween-80",104 % of control
COc1ccc2c(c1)NC(c1ccccc1C(=O)O)c1cccn1-2 (stereo not drawn),T/C,"dose: 6.25 mg/kg/injection, schedule: Q01DX009 (ip), vehicle: saline with Tween-80",90 % of control
same,T/C,"dose: 12.5 mg/kg/injection, schedule: Q01DX009 (ip), vehicle: saline with Tween-80",97 % of control
same,T/C,"dose: 25.0 mg/kg/injection, schedule: Q01DX009 (ip), vehicle: saline with Tween-80",97 % of control
CC1(C)N=C(N)N=C(N)N1c1ccc(F)cc1,T/C,"dose: 50.0 mg/kg/injection, schedule: Q01DX005 (ip), vehicle: Klucel (hydroxypropylcellulose) (HPC)",117 % of control
O=C(CCCc1ccc(N(CCCl)CCCl)cc1)Nc1ccccc1,T/C,"dose: 25.0 mg/kg/injection, schedule: Q01DX009 (ip), vehicle: saline sonified",109 % of control
same,T/C,"dose: 25.0 mg/kg/injection, schedule: Q04DX003 (ip), vehicle: saline with Tween-80",120 % of control
same,T/C,"dose: 50.0 mg/kg/injection, schedule: Q01DX009 (ip), vehicle: saline sonified",100 % of control
same,T/C,"dose: 100.0 mg/kg/injection, schedule: Q01DX009 (ip), vehicle: saline sonified",113 % of control
same,T/C,"dose: 100.0 mg/kg/injection, schedule: Q04DX003 (ip), vehicle: saline with Tween-80",210 % of control
CCCCCC(CN(C)C)C(O)/C=C\c1ccccc1 (stereo not drawn),T/C,"dose: 3.13 mg/kg/injection, schedule: Q01DX009 (ip), vehicle: saline",100 % of control
same,T/C,"dose: 6.25 mg/kg/injection, schedule: Q01DX009 (ip), vehicle: saline",117 % of control
same,T/C,"dose: 12.5 mg/kg/injection, schedule: Q01DX009 (ip), vehicle: saline",119 % of control
same,T/C,"dose: 50.0 mg/kg/injection, schedule: Q01DX009 (ip), vehicle: saline",104 % of control
same,T/C,"dose: 100.0 mg/kg/injection, schedule: Q01DX009 (ip), vehicle: saline",99 % of control
CC(C)(C)[Si](C)(C)OC(=O)Nc1ccc(N(CCCl)CCCl)cc1,T/C,"dose: 0.05 mg/kg/injection, schedule: Q01DX009 (ip), vehicle: saline with Tween-80",104 % of control
same,T/C,"dose: 0.07 mg/kg/injection, schedule: Q01DX009 (ip), vehicle: saline with Tween-80",114 % of control
same,T/C,"dose: 0.11 mg/kg/injection, schedule: Q01DX009 (ip), vehicle: saline with Tween-80",117 % of control
same,T/C,"dose: 0.16 mg/kg/injection, schedule: Q01DX009 (ip), vehicle: saline with Tween-80",108 % of control
same,T/C,"dose: 0.32 mg/kg/injection, schedule: Q01DX009 (ip), vehicle: saline with Tween-80",107 % of control
O=C1CN(CCN2CC(=O)NC(=O)C2)CC(=O)N1,T/C,"dose: 3.12 mg/kg/injection, schedule: Q03HX024 (ip), vehicle: steriod suspending solution",105 % of control
same,T/C,"dose: 6.25 mg/kg/injection, schedule: Q03HX024 (ip), vehicle: steriod suspending solution",117 % of control
same,T/C,"dose: 12.5 mg/kg/injection, schedule: Q01DX009 (ip), vehicle: steriod suspending solution",94 % of control
same,T/C,"dose: 12.5 mg/kg/injection, schedule: Q03HX024 (ip), vehicle: steriod suspending solution",152 % of control
same,T/C,"dose: 15.0 mg/kg/injection, schedule: Q01DX010 (ip), vehicle: saline",314 % of control and 222 % of control
same,T/C,"dose: 25.0 mg/kg/injection, schedule: Q01DX009 (ip), vehicle: steriod suspending solution",105 % of control
same,T/C,"dose: 25.0 mg/kg/injection, schedule: Q03HX024 (ip), vehicle: steriod suspending solution",152 % of control
same,T/C,"dose: 30.0 mg/kg/injection, schedule: Q01DX010 (ip), vehicle: saline",272 % of control and 176 % of control
same,T/C,"dose: 50.0 mg/kg/injection, schedule: Q03HX024 (ip), vehicle: steriod suspending solution",123 % of control
same,T/C,"dose: 60.0 mg/kg/injection, schedule: Q01DX010 (ip), vehicle: saline",118 % of control and 219 % of control
same,T/C,"dose: 100.0 mg/kg/injection, schedule: Q01DX001 (ip), vehicle: steriod suspending solution",100 % of control
same,T/C,"dose: 100.0 mg/kg/injection, schedule: Q01DX009 (ip), vehicle: steriod suspending solution",164 % of control
same,T/C,"dose: 100.0 mg/kg/injection, schedule: Q04DX003 (ip), vehicle: steriod suspending solution",105 % of control
same,T/C,"dose: 200.0 mg/kg/injection, schedule: Q01DX001 (ip), vehicle: steriod suspending solution",105 % of control
same,T/C,"dose: 200.0 mg/kg/injection, schedule: Q04DX003 (ip), vehicle: steriod suspending solution",111 % of control
same,T/C,"dose: 400.0 mg/kg/injection, schedule: Q01DX001 (ip), vehicle: steriod suspending solution",111 % of control
same,T/C,"dose: 800.0 mg/kg/injection, schedule: Q01DX001 (ip), vehicle: steriod suspending solution",117 % of control
same,T/C,"dose: 800.0 mg/kg/injection, schedule: Q04DX003 (ip), vehicle: steriod suspending solution",182 % of control
